Reference: ChEMBL document CHEMBL5442175, “EUbOPEN Chemogenomics Library - PDSP Secondary Binding” (2024)

Assays:
[1] = target: Beta-3 adrenergic receptor (Homo sapiens, UniProt P13945); test: (§1) PDSP Secondary Binding target: ADRB3 - Compounds are tested at 10 uM concentration, plate are incubated at room temperature in the dark for 90 minutes. Reaction are stopped by vacuum filtration onto 0.3% polyethyleneimine soaked filter mats using Filtermate harvester. Scintillation cocktail is then melted onto microwave-dried filters on a hot plate and the radio activity is counted in Microbia counter.
Sequence of Beta-3 adrenergic receptor (P13945 whole entry): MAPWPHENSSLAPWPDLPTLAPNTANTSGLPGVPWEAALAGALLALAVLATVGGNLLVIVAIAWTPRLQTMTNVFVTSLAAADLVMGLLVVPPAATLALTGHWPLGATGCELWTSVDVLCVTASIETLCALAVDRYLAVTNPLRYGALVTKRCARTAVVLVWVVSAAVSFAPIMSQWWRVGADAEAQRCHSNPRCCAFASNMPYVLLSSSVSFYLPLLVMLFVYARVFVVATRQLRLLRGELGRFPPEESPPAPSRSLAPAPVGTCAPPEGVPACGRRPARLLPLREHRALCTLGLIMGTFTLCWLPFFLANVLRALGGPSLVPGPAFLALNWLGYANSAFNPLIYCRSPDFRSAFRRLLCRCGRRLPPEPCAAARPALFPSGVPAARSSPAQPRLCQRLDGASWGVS

[2] = target: Beta-1 adrenergic receptor (Homo sapiens, UniProt P08588); test: as §1, with “ADRB1” for “ADRB3”
Sequence of Beta-1 adrenergic receptor (P08588 whole entry): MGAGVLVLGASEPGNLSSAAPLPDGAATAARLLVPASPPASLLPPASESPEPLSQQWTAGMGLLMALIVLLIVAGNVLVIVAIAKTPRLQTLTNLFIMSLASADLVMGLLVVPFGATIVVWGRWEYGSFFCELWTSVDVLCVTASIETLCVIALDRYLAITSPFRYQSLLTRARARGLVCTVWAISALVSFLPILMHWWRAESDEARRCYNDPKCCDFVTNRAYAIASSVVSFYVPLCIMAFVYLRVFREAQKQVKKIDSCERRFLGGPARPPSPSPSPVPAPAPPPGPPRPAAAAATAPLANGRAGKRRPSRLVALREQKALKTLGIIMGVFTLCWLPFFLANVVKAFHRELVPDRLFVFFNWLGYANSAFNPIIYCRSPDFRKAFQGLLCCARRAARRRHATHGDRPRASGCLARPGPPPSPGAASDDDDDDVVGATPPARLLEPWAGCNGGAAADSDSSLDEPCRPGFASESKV

[3] = target: Sigma non-opioid intracellular receptor 1 (Homo sapiens, UniProt Q99720); test: as §1, with “SIGMAR1” for “ADRB3”
Sequence of Sigma non-opioid intracellular receptor 1 (Q99720 whole entry): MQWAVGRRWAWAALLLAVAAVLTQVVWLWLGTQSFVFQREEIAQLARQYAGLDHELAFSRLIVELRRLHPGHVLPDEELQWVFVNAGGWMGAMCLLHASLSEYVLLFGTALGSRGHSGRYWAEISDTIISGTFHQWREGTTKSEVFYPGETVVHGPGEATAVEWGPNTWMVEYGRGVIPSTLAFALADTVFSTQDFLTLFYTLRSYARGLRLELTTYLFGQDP

[4] = target: 5-hydroxytryptamine receptor 2B (Homo sapiens, UniProt P41595); test: as §1, with “HTR2B” for “ADRB3”
Sequence of 5-hydroxytryptamine receptor 2B (P41595 whole entry): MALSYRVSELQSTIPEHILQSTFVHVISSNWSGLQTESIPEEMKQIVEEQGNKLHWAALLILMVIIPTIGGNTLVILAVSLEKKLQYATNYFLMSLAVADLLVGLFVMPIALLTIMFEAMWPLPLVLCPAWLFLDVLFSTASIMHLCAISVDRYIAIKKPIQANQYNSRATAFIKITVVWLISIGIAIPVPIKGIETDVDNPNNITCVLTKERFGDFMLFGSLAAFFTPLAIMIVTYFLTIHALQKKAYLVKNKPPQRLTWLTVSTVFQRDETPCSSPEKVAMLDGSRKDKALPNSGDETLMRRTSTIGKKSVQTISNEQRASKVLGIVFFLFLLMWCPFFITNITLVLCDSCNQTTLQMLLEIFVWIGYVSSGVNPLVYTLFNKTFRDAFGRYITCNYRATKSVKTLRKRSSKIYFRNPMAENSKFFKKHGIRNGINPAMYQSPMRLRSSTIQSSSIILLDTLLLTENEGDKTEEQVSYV

Histamine H4 receptor = Histamine H4 receptor (Homo sapiens, UniProt Q9H3N8); test: as §1, with “HRH4” for “ADRB3”
Sequence of Histamine H4 receptor (Q9H3N8 whole entry): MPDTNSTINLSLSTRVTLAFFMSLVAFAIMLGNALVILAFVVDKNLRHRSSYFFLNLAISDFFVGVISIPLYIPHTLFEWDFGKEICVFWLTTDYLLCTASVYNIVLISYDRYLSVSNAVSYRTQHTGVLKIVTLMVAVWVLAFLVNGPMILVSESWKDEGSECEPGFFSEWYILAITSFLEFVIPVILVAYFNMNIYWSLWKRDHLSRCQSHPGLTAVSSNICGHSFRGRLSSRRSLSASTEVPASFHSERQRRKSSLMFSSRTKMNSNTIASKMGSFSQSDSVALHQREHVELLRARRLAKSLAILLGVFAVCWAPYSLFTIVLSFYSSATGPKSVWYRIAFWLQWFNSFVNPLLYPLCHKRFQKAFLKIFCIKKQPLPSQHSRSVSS

[5] = target: T1, Alpha-1D adrenergic receptor (Homo sapiens, UniProt P25100); test: as §1, with “ADRA1D” for “ADRB3”
T1 sequence (P25100 whole entry): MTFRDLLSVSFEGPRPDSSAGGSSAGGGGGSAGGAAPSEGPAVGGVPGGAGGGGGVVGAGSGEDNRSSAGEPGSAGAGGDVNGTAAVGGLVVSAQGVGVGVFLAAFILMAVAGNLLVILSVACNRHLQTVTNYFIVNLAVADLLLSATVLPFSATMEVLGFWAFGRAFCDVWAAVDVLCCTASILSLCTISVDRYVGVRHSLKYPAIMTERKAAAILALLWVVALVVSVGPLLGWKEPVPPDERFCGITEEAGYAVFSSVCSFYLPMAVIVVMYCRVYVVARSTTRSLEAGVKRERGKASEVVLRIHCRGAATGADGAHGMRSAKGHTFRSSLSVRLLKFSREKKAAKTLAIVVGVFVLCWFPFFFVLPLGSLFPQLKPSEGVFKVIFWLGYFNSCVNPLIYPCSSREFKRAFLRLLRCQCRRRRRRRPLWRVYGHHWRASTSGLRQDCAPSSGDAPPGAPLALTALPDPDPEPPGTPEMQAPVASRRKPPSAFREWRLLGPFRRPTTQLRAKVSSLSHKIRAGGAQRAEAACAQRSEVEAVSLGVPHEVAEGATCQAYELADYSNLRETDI

Histamine H1 receptor = Histamine H1 receptor (Homo sapiens, UniProt P35367); test: as §1, with “HRH1” for “ADRB3”
Sequence of Histamine H1 receptor (P35367 whole entry): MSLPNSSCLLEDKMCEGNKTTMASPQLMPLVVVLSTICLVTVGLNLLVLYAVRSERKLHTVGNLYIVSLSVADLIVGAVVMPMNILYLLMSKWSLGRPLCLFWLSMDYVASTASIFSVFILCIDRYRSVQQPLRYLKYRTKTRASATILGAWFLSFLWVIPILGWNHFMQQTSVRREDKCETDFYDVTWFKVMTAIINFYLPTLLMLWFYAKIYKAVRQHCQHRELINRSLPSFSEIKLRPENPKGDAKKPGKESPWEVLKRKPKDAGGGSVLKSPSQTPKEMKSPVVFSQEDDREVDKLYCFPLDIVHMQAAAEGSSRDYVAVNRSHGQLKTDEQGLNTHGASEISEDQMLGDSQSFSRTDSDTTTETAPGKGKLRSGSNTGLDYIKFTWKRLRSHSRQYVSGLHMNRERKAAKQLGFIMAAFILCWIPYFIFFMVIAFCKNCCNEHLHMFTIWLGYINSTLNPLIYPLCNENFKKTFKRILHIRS

[6] = target: 5-hydroxytryptamine receptor 2A (Homo sapiens, UniProt P28223); test: as §1, with “HTR2A” for “ADRB3”
[7] = target: Delta-type opioid receptor (Homo sapiens, UniProt P41143); test: as §1, with “OPRD1” for “ADRB3”
Sequence of Delta-type opioid receptor (P41143 whole entry): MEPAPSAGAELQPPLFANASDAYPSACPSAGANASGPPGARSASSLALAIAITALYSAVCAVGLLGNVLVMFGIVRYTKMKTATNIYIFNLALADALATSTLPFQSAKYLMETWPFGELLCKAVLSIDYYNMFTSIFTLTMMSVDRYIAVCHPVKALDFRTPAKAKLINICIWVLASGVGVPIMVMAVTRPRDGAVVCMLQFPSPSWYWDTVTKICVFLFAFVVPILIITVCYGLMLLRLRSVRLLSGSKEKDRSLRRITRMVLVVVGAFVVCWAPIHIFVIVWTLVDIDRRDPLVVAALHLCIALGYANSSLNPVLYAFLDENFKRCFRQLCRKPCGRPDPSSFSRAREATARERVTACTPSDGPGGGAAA

[8] = target: T2, 5-hydroxytryptamine receptor 3A (Homo sapiens, UniProt P46098); test: as §1, with “HTR3A” for “ADRB3”
T2 sequence (P46098 whole entry): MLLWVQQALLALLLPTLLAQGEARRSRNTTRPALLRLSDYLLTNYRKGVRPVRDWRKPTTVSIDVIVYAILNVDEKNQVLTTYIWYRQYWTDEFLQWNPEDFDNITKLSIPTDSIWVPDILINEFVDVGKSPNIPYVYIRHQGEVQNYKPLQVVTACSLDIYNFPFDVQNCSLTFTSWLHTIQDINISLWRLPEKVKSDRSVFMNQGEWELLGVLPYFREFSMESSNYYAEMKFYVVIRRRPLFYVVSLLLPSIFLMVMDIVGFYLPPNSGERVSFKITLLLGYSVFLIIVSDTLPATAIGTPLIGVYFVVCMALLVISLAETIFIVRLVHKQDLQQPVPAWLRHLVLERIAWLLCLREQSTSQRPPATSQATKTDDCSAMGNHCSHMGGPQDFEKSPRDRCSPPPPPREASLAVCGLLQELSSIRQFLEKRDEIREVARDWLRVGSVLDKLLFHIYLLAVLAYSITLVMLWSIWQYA

[9] = target: 5-hydroxytryptamine receptor 1D (Homo sapiens, UniProt P28221); test: as §1, with “HTR1D” for “ADRB3”
Sequence of 5-hydroxytryptamine receptor 1D (P28221 whole entry): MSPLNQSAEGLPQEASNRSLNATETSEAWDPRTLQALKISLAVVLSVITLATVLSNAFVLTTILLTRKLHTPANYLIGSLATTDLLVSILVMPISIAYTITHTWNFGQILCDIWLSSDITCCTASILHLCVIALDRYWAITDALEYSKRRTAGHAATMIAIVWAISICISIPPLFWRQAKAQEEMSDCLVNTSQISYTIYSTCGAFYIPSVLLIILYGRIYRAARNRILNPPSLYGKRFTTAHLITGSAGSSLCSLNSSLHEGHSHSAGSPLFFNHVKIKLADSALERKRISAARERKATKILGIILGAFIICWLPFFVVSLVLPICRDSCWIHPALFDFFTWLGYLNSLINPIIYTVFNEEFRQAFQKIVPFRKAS

[10] = target: 5-hydroxytryptamine receptor 5A (Homo sapiens, UniProt P47898); test: as §1, with “HTR5A” for “ADRB3”
[11] = target: Sodium-dependent noradrenaline transporter (Homo sapiens, UniProt P23975); test: as §1, with “SLC6A2” for “ADRB3”
Sequence of Sodium-dependent noradrenaline transporter (P23975 whole entry): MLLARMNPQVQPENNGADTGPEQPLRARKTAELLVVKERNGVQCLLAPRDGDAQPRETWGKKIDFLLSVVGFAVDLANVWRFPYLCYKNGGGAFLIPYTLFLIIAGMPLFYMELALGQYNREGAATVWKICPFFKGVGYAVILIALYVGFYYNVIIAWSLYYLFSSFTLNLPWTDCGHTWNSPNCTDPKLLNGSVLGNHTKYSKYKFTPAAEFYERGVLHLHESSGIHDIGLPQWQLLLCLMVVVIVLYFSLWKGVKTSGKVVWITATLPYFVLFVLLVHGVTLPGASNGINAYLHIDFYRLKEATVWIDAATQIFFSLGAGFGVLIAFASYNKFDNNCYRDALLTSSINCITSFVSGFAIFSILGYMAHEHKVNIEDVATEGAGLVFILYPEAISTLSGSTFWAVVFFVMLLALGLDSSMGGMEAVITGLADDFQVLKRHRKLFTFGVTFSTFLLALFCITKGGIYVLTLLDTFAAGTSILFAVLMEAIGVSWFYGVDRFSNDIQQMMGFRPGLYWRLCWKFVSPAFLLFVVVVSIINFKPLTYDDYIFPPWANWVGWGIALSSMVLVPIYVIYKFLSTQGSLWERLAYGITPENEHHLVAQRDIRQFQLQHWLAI

[12] = target: Sigma intracellular receptor 2 (Homo sapiens, UniProt Q5BJF2); test: as §1, with “TMEM97” for “ADRB3”
Sequence of Sigma intracellular receptor 2 (Q5BJF2 whole entry): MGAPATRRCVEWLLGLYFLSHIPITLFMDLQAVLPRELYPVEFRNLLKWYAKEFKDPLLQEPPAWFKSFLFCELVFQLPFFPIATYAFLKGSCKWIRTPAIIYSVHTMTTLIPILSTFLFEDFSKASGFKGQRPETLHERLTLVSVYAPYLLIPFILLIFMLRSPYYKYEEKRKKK

[13] = target: Kappa-type opioid receptor (Homo sapiens, UniProt P41145); test: as §1, with “OPRK1” for “ADRB3”
Sequence of Kappa-type opioid receptor (P41145 whole entry): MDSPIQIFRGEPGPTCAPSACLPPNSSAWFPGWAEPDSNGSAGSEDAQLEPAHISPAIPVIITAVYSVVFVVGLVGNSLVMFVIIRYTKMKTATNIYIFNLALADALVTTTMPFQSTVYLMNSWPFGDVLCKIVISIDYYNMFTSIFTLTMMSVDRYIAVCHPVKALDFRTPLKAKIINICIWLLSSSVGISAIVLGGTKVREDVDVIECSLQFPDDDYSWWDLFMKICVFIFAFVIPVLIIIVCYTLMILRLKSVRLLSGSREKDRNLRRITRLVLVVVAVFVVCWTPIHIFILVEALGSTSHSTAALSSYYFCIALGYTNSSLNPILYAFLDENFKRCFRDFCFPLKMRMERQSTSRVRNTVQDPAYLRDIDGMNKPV

Mu-type opioid receptor = Mu-type opioid receptor (Homo sapiens, UniProt P35372); test: as §1, with “OPRM1” for “ADRB3”
Sequence of Mu-type opioid receptor (P35372 whole entry): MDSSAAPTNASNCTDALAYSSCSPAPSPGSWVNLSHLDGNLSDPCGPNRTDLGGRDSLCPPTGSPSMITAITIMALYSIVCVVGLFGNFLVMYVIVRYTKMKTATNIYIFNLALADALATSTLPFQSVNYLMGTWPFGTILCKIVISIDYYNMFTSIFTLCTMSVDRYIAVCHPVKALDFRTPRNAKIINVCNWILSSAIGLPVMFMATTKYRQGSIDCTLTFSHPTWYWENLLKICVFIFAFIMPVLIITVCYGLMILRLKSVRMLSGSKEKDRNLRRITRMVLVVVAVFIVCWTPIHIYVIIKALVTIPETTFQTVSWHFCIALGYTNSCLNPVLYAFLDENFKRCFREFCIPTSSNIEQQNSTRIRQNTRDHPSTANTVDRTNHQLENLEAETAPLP

[14] = target: T3, Alpha-1B adrenergic receptor (Homo sapiens, UniProt P35368); test: as §1, with “ADRA1B” for “ADRB3”
T3 sequence (P35368 whole entry): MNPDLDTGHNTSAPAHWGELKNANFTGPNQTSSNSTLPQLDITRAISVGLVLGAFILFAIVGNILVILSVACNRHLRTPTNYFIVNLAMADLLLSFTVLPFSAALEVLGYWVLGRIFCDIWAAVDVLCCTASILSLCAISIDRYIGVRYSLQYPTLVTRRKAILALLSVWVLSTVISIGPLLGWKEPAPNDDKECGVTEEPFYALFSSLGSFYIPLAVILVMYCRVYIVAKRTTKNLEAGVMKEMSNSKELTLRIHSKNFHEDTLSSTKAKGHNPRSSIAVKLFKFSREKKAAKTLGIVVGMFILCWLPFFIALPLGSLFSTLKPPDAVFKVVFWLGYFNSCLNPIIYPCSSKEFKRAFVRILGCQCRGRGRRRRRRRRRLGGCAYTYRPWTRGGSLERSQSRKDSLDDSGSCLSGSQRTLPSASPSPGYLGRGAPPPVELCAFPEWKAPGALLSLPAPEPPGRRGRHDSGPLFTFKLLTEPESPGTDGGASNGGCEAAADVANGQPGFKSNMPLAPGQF

[15] = target: T4, Alpha-2A adrenergic receptor (Homo sapiens, UniProt P08913); test: as §1, with “ADRA2A” for “ADRB3”
T4 sequence (P08913 whole entry): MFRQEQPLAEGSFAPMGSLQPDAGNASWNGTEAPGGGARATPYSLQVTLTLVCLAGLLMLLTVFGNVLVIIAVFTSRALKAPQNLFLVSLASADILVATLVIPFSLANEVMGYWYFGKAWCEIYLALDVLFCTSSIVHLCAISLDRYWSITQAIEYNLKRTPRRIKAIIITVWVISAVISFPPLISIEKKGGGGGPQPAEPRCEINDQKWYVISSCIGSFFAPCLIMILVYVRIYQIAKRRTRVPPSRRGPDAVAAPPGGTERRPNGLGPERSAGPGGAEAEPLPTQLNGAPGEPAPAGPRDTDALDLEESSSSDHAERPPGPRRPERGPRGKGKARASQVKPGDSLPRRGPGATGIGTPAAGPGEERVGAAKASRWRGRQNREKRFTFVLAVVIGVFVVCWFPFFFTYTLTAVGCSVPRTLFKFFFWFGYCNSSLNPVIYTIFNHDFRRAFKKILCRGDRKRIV

[16] = target: T5, 5-hydroxytryptamine receptor 2C (Homo sapiens, UniProt P28335); test: as §1, with “HTR2C” for “ADRB3”
T5 sequence (P28335 whole entry): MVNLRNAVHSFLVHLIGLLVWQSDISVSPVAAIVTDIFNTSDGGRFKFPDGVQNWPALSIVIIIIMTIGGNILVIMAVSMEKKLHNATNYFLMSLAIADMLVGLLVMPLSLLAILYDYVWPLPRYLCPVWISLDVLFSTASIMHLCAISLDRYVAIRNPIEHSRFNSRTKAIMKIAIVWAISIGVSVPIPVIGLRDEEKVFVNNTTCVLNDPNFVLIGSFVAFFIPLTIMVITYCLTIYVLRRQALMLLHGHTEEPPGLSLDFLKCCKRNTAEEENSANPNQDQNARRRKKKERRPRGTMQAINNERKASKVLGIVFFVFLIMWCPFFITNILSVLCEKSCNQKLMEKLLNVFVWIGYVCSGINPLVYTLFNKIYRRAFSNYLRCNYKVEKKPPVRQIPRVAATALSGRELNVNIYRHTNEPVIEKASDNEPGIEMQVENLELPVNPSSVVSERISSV

SMILES	Ki [1] [nM]	Ki [2] [nM]	Ki [3] [nM]	Ki [4] [nM]	Ki (Histamine H4 receptor) [nM]	Ki [5] [nM]	Ki (Histamine H1 receptor) [nM]	Ki [6] [nM]	Ki [7] [nM]	Ki [8] [nM]	Ki [9] [nM]	Ki [10] [nM]	Ki [11] [nM]	Ki [12] [nM]	Ki [13] [nM]	Ki (Mu-type opioid receptor) [nM]	Ki [14] [nM]	Ki [15] [nM]	Ki [16] [nM]
O=C(Nc1ccc(Cl)cc1)Nc1cccc(-c2cccc(N3CCCC3)n2)c1	> 10000	> 10000	–	–	–	–	–	–	–	–	–	–	–	–	–	–	–	–	–
Nc1nc2c(c(N3CCNCC3)n1)CCC1=C2[C@@H]2CCCC[C@@H]2O1	–	–	463	280	18	8030	1280	6430	> 10000	352	–	–	–	–	–	–	–	–	–
COc1ccc(NS(=O)(=O)c2sc3ccc(Cl)cc3c2C)cc1N1CCNCC1	2100	4460	598	804	–	–	–	–	–	988	1080	1910	5620	663	898	3580	2660	590	1280
